The values below come from patent US9145351B2, “Azole derivatives, methods for producing the same, intermediate thereof, agro-horticultural agents” (KUREHA CORPORATION, priority 2009, dated 2015).

What all share (assay type): cell-based
One assay deals with Ustilago nuda. As to the kind of experiment: Plate medium fungicidal assay, barley loose smut U.n (Experimental Example 5). Conditions: for inhibition at 5 µg/mL / inhibition at 50 µg/mL: Ustilago nuda, plate medium, read-out: growth inhibition grade U.n; for inhibition at 5 µg/mL: 5 mg/L; for inhibition at 50 µg/mL: 50 mg/L. Here is the method:
(§1) In this Experimental Example, the fungicidal effects of the inventive compounds on various phytopathogenic fungi for plants and hazardous microorganism for industrial materials were examined by the methods described below. Each inventive compound was dissolved in 2 ml of dimethyl sulfoxide. 0.6 ml of this solution was added to 60 nil of a PDA medium (potato dextrose agar medium) at about 60 degrees C., which was mixed thoroughly in a 100-ml conical flask, and poured into a dish, where it was solidified, thereby obtaining a plate medium containing the inventive compound at 50 mg/L and 5 mg/L. On the other hand, a subject microorganism previously cultured on a plate medium was cut out using a cork borer whose diameter was 4 mm, and inoculated to the test compound-containing plate medium described above. […] The growth degree of the microorganism on the test compound-containing plate medium thus observed was compared with the growth degree of the microorganism in the untreated group, and % mycelial growth inhibition was calculated by the following equation. R=100(dc−dt)/dc wherein R=% mycelial extension inhibition, dc=flora diameter in untreated plate, dt=flora diameter in treated plate. The results obtained as described above were evaluated as one of the 5 grades according to the following criteria. […] Barley loose smut (Ustilago nuda) U.n

The test system of assay [1] is Pseudocercoporella herpotrichoides. Kind of assay: Plate medium fungicidal assay, wheat eye spot P.h (Experimental Example 5). Conditions: for inhibition at 5 µg/mL / inhibition at 50 µg/mL: plate medium, read-out: growth inhibition grade P.h; for inhibition at 5 µg/mL: 5 mg/L; for inhibition at 50 µg/mL: 50 mg/L. Here is the method: as §1, with “Wheat eye spot (Pseudocercoporella herpotrichoides) P.h” for “Barley loose smut (Ustilago nuda) U.n”

The next assay deals with Phaeosphaeria nodorum. Kind of assay: Plate medium fungicidal assay, wheat Septoria nodorum blotch P.n (Experimental Example 5). Conditions: for inhibition at 5 µg/mL / inhibition at 50 µg/mL: Parastagonospora nodorum, plate medium, read-out: growth inhibition grade P.n; for inhibition at 5 µg/mL: 5 mg/L; for inhibition at 50 µg/mL: 50 mg/L. How it is done:
as §1, with “Wheat Septoria nodorum blotch (Phaeosphaeria nodorum) P.n” for “Barley loose smut (Ustilago nuda) U.n”

The test system of the next assay is Fusarium oxysporum. As to the kind of experiment: Plate medium fungicidal assay, cucumber fusarium wilt F.c (Experimental Example 5). Conditions: for inhibition at 5 µg/mL / inhibition at 50 µg/mL: Fusarium oxysporum, plate medium, read-out: growth inhibition grade F.c; for inhibition at 5 µg/mL: 5 mg/L; for inhibition at 50 µg/mL: 50 mg/L. Here is the method:
as §1, with “Cucumber fusarium wilt (Fusarium oxysporum) F.c” for “Barley loose smut (Ustilago nuda) U.n”

A further assay relates to Fusarium graminearum. Kind of assay: microbe, parasite or virus in culture. Conditions: for inhibition at 5 µg/mL / inhibition at 50 µg/mL: Fusarium graminearum, read-out: growth inhibition grade F.g.
For a further assay, the system named is Pyricularia oryzae. As to the kind of experiment: microbe, parasite or virus in culture. Conditions: for inhibition at 5 µg/mL / inhibition at 50 µg/mL: Pyricularia oryzae, read-out: growth inhibition grade P.o.
The next assay deals with Sclerotinia sclerotiorum. Kind of assay: Plate medium fungicidal assay, Sclerotinia rot S.s (Experimental Example 5). Conditions: for inhibition at 5 µg/mL / inhibition at 50 µg/mL: Sclerotinia sclerotiorum, plate medium, read-out: growth inhibition grade S.s; for inhibition at 5 µg/mL: 5 mg/L; for inhibition at 50 µg/mL: 50 mg/L. How it is done: as §1, with “Sclerotinia rot (Sclerotinia sclerotiorum) S.s” for “Barley loose smut (Ustilago nuda) U.n”

The mark [2] stands for this setting: plate medium containing compound at 5 mg/L.
Where [3] appears, read: plate medium containing compound at 50 mg/L.

SMILES strings stand for the structures.

On to `C[C@@]1(CCl)CC[C@@H](Cc2ccc(Cl)cc2)[C@]1(O)Cn1cncn1` (racemic) [Compound I-101], for which the “Growth inhibition grade, U.n” value with Ustilago nuda (setting [2]) and with Ustilago nuda (setting [3]) was 5 (% Mycerial growth inhibition of 80% or higher) throughout. The “Growth inhibition grade, P.h” value in assay [1] (setting [2]) and in assay [1] (setting [3]) was 5 (% Mycerial growth inhibition of 80% or higher) in each case. Further, the “Growth inhibition grade, P.n” value with Phaeosphaeria nodorum (setting [2]) and in the assay on Phaeosphaeria nodorum (setting [3]) was 5 (% Mycerial growth inhibition of 80% or higher) throughout. For the same compound, the “Growth inhibition grade, F.c” value in the assay on Fusarium oxysporum (setting [2]) and in the assay with Fusarium oxysporum (setting [3]) was 5 (% Mycerial growth inhibition of 80% or higher) in each case. The “Growth inhibition grade, F.g” value in the assay on Fusarium graminearum (setting [2]) and with Fusarium graminearum (setting [3]) was 5 (% Mycerial growth inhibition of 80% or higher) in each case. The “Growth inhibition grade, P.o” value with Pyricularia oryzae (setting [2]) and in the assay on Pyricularia oryzae (setting [3]) was 5 (% Mycerial growth inhibition of 80% or higher) throughout. The “Growth inhibition grade, S.s” value in the assay with Sclerotinia sclerotiorum (setting [2]) and with Sclerotinia sclerotiorum (setting [3]) was 5 (% Mycerial growth inhibition of 80% or higher) in each case.
Turning to `C[C@@]1(CCCl)CC[C@@H](Cc2ccc(Cl)cc2)[C@]1(O)Cn1cncn1` (racemic) [Compound I-104, (1RS,2SR,5SR)-5-(4-chlorobenzyl)-2-(2-chloroethyl)-2-methyl-1-(1H-1,2,4-triazol-1-ylmethyl)cyclopentanol], the inhibition at 5 µg/mL (with Ustilago nuda; in assay [1]; with Phaeosphaeria nodorum; in the assay on Fusarium oxysporum; in the assay on Fusarium graminearum; with Pyricularia oryzae) was above 80% throughout. Also, the inhibition at 5 µg/mL with Sclerotinia sclerotiorum was above 80%. The inhibition at 50 µg/mL (with Ustilago nuda; in assay [1]; with Phaeosphaeria nodorum; in the assay with Fusarium oxysporum; with Fusarium graminearum; in the assay with Pyricularia oryzae) was above 80% each time. Besides, the inhibition at 50 µg/mL in the assay on Sclerotinia sclerotiorum was above 80%.
Take `CC(Cl)=C[C@]1(C)CC[C@@H](Cc2ccc(Cl)cc2)[C@]1(O)Cn1cncn1` (racemic) [Compound I-115, (1RS,2SR,5SR)-5-(4-chlorobenzyl)-2-(2-chloropropenyl)-2-methyl-1-(1H-1,2,4-triazol-1-ylmethyl)cyclopentanol]: the inhibition at 5 µg/mL is 60 to 80% in the assay with Ustilago nuda; above 80% in assay [1]; 60 to 80% in the assay on Phaeosphaeria nodorum; above 80% with Fusarium oxysporum; above 80% with Fusarium graminearum; above 80% with Pyricularia oryzae. The inhibition at 5 µg/mL with Sclerotinia sclerotiorum is above 80%. Further, the inhibition at 50 µg/mL (with Ustilago nuda; in assay [1]; in the assay with Phaeosphaeria nodorum; with Fusarium oxysporum; in the assay on Fusarium graminearum; with Pyricularia oryzae) was above 80% in each case. Moreover, the inhibition at 50 µg/mL in the assay with Sclerotinia sclerotiorum is above 80%.
As to `C[C@]1(CCl)CC[C@@H](Cc2ccc(Cl)cc2)[C@]1(O)Cn1ccnc1` (racemic) [Compound I-244, (1RS,2SR,5SR)-5-(4-chlorobenzyl)-2-chloromethyl-2-methyl-1-imidazol-1-ylmethylcyclopentanol], the inhibition at 5 µg/mL (in the assay with Ustilago nuda; in assay [1]; in the assay on Phaeosphaeria nodorum; in the assay with Fusarium oxysporum; in the assay on Fusarium graminearum; in the assay with Pyricularia oryzae) was above 80% in each case. In the assay on Sclerotinia sclerotiorum, the inhibition at 5 µg/mL was above 80%. For the same compound, the inhibition at 50 µg/mL (in the assay with Ustilago nuda; in assay [1]; in the assay with Phaeosphaeria nodorum; with Fusarium oxysporum; in the assay on Fusarium graminearum; in the assay on Pyricularia oryzae) was above 80% throughout. In the assay with Sclerotinia sclerotiorum, the inhibition at 50 µg/mL is above 80%.
Turning to `C[C@]1(CCl)CC[C@H](Cc2ccc(Cl)cc2)[C@]1(O)Cn1cncn1` (racemic) [Compound I-301, (1RS,2SR,5RS)-5-(4-chlorobenzyl)-2-chloromethyl-2-methyl-1-[1,2,4]triazol-1-ylmethylcyclopentanol], the inhibition at 5 µg/mL (in the assay on Ustilago nuda; in assay [1]; with Phaeosphaeria nodorum; with Fusarium oxysporum; with Fusarium graminearum; in the assay with Pyricularia oryzae) was above 80% each time. Also, the inhibition at 5 µg/mL in the assay with Sclerotinia sclerotiorum was above 80%. The inhibition at 50 µg/mL (in the assay with Ustilago nuda; in assay [1]; in the assay with Phaeosphaeria nodorum; in the assay on Fusarium oxysporum; in the assay on Fusarium graminearum; with Pyricularia oryzae) was above 80% each time. Besides, the inhibition at 50 µg/mL in the assay on Sclerotinia sclerotiorum is above 80%.
